Experiment [1] has as its target ROCK2 (human) (UniProt O75116). Description: Assessment of ROCK2 Kinase Activity using Luciferin-Luciferase Assay.
For experiment [2], the target named is ROCK2 (human) (UniProt O75116). Description: Assessment of ROCK2 Kinase Activity using IMAP Assay.
Sequence of ROCK2 (human) (O75116 whole entry, looked up): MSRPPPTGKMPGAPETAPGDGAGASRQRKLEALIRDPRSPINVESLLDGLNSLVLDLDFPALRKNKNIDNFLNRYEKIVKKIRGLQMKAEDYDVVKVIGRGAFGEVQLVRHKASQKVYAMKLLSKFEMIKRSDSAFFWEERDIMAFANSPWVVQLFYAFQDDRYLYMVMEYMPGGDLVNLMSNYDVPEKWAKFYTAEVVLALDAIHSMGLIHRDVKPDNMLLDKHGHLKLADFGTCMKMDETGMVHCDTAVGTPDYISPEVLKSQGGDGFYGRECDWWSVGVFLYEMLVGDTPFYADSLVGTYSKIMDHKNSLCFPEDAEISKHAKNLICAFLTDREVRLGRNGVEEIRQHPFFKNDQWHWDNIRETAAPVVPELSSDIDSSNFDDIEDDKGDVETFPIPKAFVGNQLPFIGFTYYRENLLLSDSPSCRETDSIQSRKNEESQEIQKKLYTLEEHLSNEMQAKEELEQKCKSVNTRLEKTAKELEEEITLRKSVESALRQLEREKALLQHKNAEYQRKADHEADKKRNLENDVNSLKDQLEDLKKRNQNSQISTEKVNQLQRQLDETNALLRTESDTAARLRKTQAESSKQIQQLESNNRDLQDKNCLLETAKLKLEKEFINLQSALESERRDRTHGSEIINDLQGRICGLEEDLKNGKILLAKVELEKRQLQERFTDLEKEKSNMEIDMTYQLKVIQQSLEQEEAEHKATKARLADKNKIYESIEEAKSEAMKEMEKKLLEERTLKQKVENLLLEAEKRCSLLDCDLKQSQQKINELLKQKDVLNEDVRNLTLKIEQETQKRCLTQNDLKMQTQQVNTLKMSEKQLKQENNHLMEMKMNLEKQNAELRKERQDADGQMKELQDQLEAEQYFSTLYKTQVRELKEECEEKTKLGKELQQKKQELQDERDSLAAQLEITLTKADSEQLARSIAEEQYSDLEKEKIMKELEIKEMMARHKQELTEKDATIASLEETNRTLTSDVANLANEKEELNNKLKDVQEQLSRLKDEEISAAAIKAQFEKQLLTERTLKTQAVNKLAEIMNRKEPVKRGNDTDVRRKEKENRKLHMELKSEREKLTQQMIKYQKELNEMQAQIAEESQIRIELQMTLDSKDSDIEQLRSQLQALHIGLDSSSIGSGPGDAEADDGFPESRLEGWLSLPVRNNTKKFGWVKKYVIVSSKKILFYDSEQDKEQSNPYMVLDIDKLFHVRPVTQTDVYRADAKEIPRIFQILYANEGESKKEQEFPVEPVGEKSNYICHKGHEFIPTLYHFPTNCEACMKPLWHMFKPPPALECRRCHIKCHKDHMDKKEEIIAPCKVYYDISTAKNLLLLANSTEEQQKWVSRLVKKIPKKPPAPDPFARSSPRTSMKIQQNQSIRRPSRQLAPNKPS

Turning to `CN1CCc2nc(NC(=O)c3cccc(OCC(=O)Nc4ccc(C#N)cc4)c3)sc2C1`, the IC50 (usually the concentration at which inhibition is half-maximal) in experiment [1] was determined as 23.4 nM.
Consider `N#CCCN[C@H]1CCc2nc(NC(=O)c3cccc(OCC(=O)Nc4ccc(C#N)cc4)c3)sc2C1`, for which the figures for the half-inhibitory concentration (IC50) in experiment [1] and in experiment [2] were 5.2 nM and 27 nM, respectively.
For `COc1ccc(C(=O)N2CCC[C@@H]2c2cccc(C(=O)Nc3nc4c(s3)CN(C)CC4)c2)cc1C`, in experiment [1], the half-maximal inhibitory concentration (IC50) worked out at 45.1 nM.
As for `CN1CCc2nc(NC(=O)c3cccc([C@H]4CCCN4C(=O)c4ccc(-c5cnco5)cc4)c3)sc2C1`, the values for the concentration for half-maximal inhibition (IC50) in experiment [1] and in experiment [2] were 2.6 nM and 11.2 nM, respectively.
Regarding `COc1ccc(C(=O)N2CCC[C@@H]2c2cccc(C(=O)Nc3nc4c(s3)C[C@@H](N3CCOCC3)CC4)c2)cc1Cl`, the half-inhibitory concentration (IC50) in experiment [1] turned out to be 5.8 nM; in experiment [2], 7.9 nM.
Molecule `COc1ccc(C(=O)N2CCC[C@@H]2c2cccc(C(=O)Nc3nc4c(s3)CN(C)CC4)c2)cc1OC` displayed an IC50 in experiment [1] of 30.7 nM.
The same measure, in the same setting: then `COc1ccc(C(=O)N2CCC[C@@H]2c2cccc(C(=O)Nc3nc4c(s3)CN(C)CC4)c2)cc1Cl`, with 38 nM.
In experiment [2], `CN1CCc2nc(NC(=O)c3cccc([C@H]4CCCN4C(=O)c4cc(-c5ccncc5)[nH]n4)c3)sc2C1` came in with a 50% inhibitory concentration (IC50) of 4.1 nM.
Turning to `CN1CCc2nc(NC(=O)c3cccc([C@H]4CCCN4C(=O)c4ccc(-n5ccnc5)cc4)c3)sc2C1`, in experiment [1], the IC50 turned out to be 14.5 nM.
For the molecule `N#Cc1ccc(NC(=O)COc2cccc(C(=O)Nc3nc4c(s3)C[C@@H](NCCC(F)(F)F)CC4)c2)cc1`, the IC50 worked out at 5.1 nM in experiment [1] and 32 nM in experiment [2].
In the same order, the values of `CN1CCc2nc(NC(=O)c3cccc([C@H]4CCCN4C(=O)c4cn5cc(C(N)=O)ccc5n4)c3)sc2C1` are 2.5 nM and 7.4 nM.
In experiment [1], `CN1CCc2nc(NC(=O)c3cccc([C@H]4CCCN4C(=O)c4cccc(-c5cccnc5)c4)c3)sc2C1` showed a concentration for half-maximal inhibition (IC50) of 80.4 nM.
As for `CN1CCc2nc(NC(=O)c3cccc([C@H]4CCCN4C(=O)c4csc(-c5cccnc5)n4)c3)sc2C1`, the half-maximal inhibitory concentration (IC50) was determined as 4 nM in experiment [1] and 13 nM in experiment [2].
Taken in the same sequence, the figures for `CN1CCc2nc(NC(=O)c3cccc([C@H]4CCCN4C(=O)c4csc(-c5ccncc5)n4)c3)sc2C1` were 6.1 nM and 16 nM.
In experiment [1], `CN1CCc2nc(NC(=O)c3cccc([C@H]4CCCN4C(=O)Nc4cccc(C(N)=O)c4)c3)sc2C1` displayed an IC50 of 94.6 nM.
Turning to `CN1CCc2nc(NC(=O)c3cccc([C@H]4CCCN4C(=O)c4nnn(-c5nonc5N)c4-c4ccccc4)c3)sc2C1`, the half-maximal inhibitory concentration (IC50) came out at 6 nM in experiment [1] and 44 nM in experiment [2].
The molecule `N#Cc1cccc(NC(=O)N2CCC[C@@H]2c2cccc(C(=O)Nc3nc4c(s3)C[C@@H](N3CCOCC3)CC4)c2)c1` returned a concentration for half-maximal inhibition (IC50) in experiment [2] of 0.6 nM.
For the molecule `CN1CCc2nc(NC(=O)c3cccc([C@H]4CCCN4C(=O)c4ccc5cc(O)ccc5c4)c3)sc2C1`, the IC50 came to 2.1 nM in experiment [1] and 4 nM in experiment [2].
Take `N#Cc1cccc2c1CCN2C(=O)N1CCC[C@@H]1c1cccc(C(=O)Nc2nc3c(s2)C[C@@H](N2CCOCC2)CC3)c1`: the IC50 in experiment [2] was 2.9 nM.
`Cc1nnnn1-c1ccc(C(=O)N2CCC[C@@H]2c2cccc(C(=O)Nc3nc4c(s3)CN(C)CC4)c2)cc1` came in with an IC50 in experiment [1] of 91.4 nM.
